Test results: patent US10836708B2, “Process for the synthesis of (s) 3-amino-4-(difluoromethylenyl)cyclopent-1-ene-1-carboxylic acid” (NORTHWESTERN UNIVERSITY, priority 2018, dated 2020)

How the values were obtained:
[1] = tested on: various microsomal cytochrome P450 enzymes; settings: cited from earlier work
[2] = tested on: γ-aminobutyric acid aminotransferase (GABA-AT); settings: statement in the background section; cited from earlier work
[3] = tested on: release of dopamine in the corpus striatum; settings: rats; after exposure to cocaine or nicotine; compared with previous inhibitors of GABA-AT; cited from earlier work
[4] = target: hERG potassium ion channel (Homo sapiens, UniProt Q12809); settings: cited from earlier work
hERG potassium ion channel, sequence (Q12809 whole entry): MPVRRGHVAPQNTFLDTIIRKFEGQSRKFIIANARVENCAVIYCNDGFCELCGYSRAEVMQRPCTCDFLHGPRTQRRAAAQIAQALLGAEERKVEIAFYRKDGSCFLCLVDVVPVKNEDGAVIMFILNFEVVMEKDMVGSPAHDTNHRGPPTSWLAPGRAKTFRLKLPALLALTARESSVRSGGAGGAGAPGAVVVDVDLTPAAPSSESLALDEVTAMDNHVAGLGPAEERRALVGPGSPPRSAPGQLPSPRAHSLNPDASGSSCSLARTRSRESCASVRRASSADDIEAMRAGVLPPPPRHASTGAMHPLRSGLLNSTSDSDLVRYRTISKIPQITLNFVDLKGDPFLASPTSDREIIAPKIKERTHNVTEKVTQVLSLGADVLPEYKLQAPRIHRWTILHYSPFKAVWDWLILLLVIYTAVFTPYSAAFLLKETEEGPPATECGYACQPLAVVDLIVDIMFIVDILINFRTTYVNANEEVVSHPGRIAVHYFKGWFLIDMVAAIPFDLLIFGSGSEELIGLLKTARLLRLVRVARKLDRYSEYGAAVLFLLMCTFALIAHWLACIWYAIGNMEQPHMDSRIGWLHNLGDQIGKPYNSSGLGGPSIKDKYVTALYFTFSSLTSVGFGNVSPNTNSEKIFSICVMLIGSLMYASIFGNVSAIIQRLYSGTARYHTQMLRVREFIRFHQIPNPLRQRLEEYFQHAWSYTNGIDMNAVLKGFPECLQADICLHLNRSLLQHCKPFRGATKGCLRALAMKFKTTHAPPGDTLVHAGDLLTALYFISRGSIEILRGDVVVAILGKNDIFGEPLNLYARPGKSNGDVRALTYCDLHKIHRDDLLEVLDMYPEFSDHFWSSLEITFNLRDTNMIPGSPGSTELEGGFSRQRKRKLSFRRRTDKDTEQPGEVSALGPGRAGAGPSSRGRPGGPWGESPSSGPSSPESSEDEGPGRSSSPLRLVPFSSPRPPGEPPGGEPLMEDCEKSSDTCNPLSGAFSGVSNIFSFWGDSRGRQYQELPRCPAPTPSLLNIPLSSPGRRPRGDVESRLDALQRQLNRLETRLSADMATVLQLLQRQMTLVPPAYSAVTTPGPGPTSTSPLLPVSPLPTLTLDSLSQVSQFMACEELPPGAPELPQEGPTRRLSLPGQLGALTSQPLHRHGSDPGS

[5] = tested on: aspartate aminotransferase; settings: off-target aminotransferase enzyme; cited from earlier work
[6] = tested on: alanine aminotransferase; settings: off-target aminotransferase enzyme; cited from earlier work
[7] = tested on: multiple GABA receptors; settings: cited from earlier work
[8] = with prolonged use; cited from earlier work

| Compound | melting point | inhibition of various microsomal cytochrome P450 enzymes [1] | inhibitor of GABA-AT [2] | suppressing the release of dopamine in the corpus striatum [3] | inhibition of the hERG potassium ion channel [4] | inhibition of aspartate aminotransferase [5] | inhibition of alanine aminotransferase [6] | inhibition of multiple GABA receptors [7] | retinal damage, share of patients [8] |
| --- | --- | --- | --- | --- | --- | --- | --- | --- | --- |
| O=C1N[C@@H]2C(=C(F)F)C[C@H]1[C@H]2Br | 139 to 141 °C |  |  |  |  |  |  |  |  |
| N[C@H]1C=C(C(=O)O)CC1=C(F)F [(S)-3-amino-4-(difluoromethylenyl)cyclopent-1-ene-1-carboxylic acid] |  | does not inhibit | inhibitor | superior | does not inhibit | does not inhibit | does not inhibit |  |  |
| C=CC(N)CCC(=O)O (stereo not shown) [Vigabatrin, 4-Aminohex-5-enoic acid] |  |  | inhibitor |  |  |  |  | inhibits | 25-40 % of patients |
